Results: US11896678B2, “Compositions and methods for treatment of peroxisome proliferator-activated receptor gamma (PPARG) activated cancer” (THE BROAD INSTITUTE, INC., priority 2017, dated 2024)
Each block holds one molecule with its values, some of them ahead of it. Ends that are not written are not given here.

Legend:
5637 cells = test: Proliferation assay in PPARG-amplified 5637 cells; assay type: cell-based; details: Homo sapiens; data not shown
Method: To determine if treatment of PPARG-activated bladder cancer cell lines with PPARG modulators impacted viability, a variety of compounds were tested in proliferation assays.

UM-UC-9 cells [1] = test: Direct cell counting dose-response proliferation assay; assay type: cell-based, human
Method: To determine whether PPARG modulators affect the proliferation and/or viability of PPARG-activated bladder cancer cell lines, a direct cell counting-based assay was performed. This assay likely avoids potential artifacts associated with the use of an ATP content-based assay, given that PPAR modulators are known to regulate cellular metabolic activity. […] These IC50 values align well with the calculated IC50s from both the cell-based reporter gene assay (FIG. 8A) and the biochemical corepressor assay (FIG. 8D).
(§1) Proliferation Assays: To enable cell-counting experiments, cell lines were transduced with a lentiviral vector encoding nuclear-targeted GFP, TagGFP2-H2B (Evrogen), and stable pools generated following selection for puromycin resistance. Cell lines were maintained for at least 7 days following selection prior to expansion and seeding into 96- or 384-well plates for further analysis. For kinetic proliferation assays, 96-well plates (n 1% 4 per condition) were imaged and counted every two hours using IncuCyte Zoom (Essen BioScience). Media and compounds were replaced approximately every 3-4 days. For endpoint assays to measure dose-response, cells were plated in 384-well plates, dosed with compound, and upon reaching approximately 70% to 90% confluence in control wells, cells were either counted using fluorescence imaging (Incu-Cyte Zoom) or incubated with CyQuant (Thermo Fisher) at the indicated time and plates were read with a fluorescent plate reader.

UM-UC-9 cells [2] = test: Kinetic proliferation assay (IncuCyte), percent of DMSO control; assay type: cell-based, human; details: 100 nmol/L; DMSO control at 50% confluency
Excerpt: This assay was expanded to include an additional 8 representative bladder cancer cell lines, including cell lines with PPARG amplification, RXRA p.S427F mutation, activated gene signature, and control cell lines with low level expression of PPARG and target genes. […] Representative data for the UM-UC-9 cell line are shown in FIG. 6B, and is tabulated for the tested bladder cancer cell lines in Table 1. […] Similar results were obtained with these cell lines in parallel studies using clonogenic assays to quantify colony-forming ability (FIG. 10).
as §1, with “Cell lines were maintained for at least 7 days following selection prior to expansion and seeding into 96- or 384-well plates for further analysis.” left out, “Media and compounds were replaced approximately every 3-4 days.” left out

[3] = system: PPARG-activated bladder cancer cell lines; test: Proliferation assays in PPARG-activated bladder cancer cell lines; assay type: cell-based, human; details: 100 nM-500 nM
Method: A panel of bladder cancer cell lines with PPARG modulators in colony formation assays was then tested (FIG. 10), kinetic proliferation assays (IncuCyte Zoom; Essen Bioscience) using cell lines treated with a single concentration of compound (100 nM-500 nM), and end-point dose-response assays (CellTiter Glo or CyQuant).
This assay was expanded to include an additional 8 representative bladder cancer cell lines, including cell lines with PPARG amplification, RXRA p.S427F mutation, activated gene signature, and control cell lines with low level expression of PPARG and target genes. […] Representative data for the UM-UC-9 cell line are shown in FIG. 6B, and is tabulated for the tested bladder cancer cell lines in Table 1. […] This significant (P<0.01) preferential sensitivity to PPARG inverse-agonists, but not antagonists, is maintained across all of the PPARG-activated cell lines in the panel, including the RXRA p.S427F cell line, HT-1197 (41), the PPARG-amplified cell lines, 5637 and UM-UC-9, and the PPARG activation gene signature cell lines Cal29, UM-UC-1, and RT112/84 (FIG. 12). […] Similar results were obtained with these cell lines in parallel studies using clonogenic assays to quantify colony-forming ability (FIG. 10).
as §1

[4] = system: PPARG-activated pancreatic and colorectal cancer cell lines; test: Kinetic proliferation assay in pancreatic and colorectal cancer cell lines; assay type: cell-based; details: 500 nM
Excerpt: To enable cell-counting, cell lines were transduced with a lentiviral vector encoding nuclear-targeted GFP (TagGFP2-H2B), and stable pools generated following selection for puromycin-resistance. Cell lines were maintained for at least 7 days following selection prior to expansion and seeding into 96-well plates for further analysis. For kinetic proliferation assays, 96-well plates were imaged in phase-contrast and green fluorescence mode every two hours using IncuCyte Zoom (Essen BioScience, Ann Arbor MI). Using IncuCyte software, the number of fluorescent nuclei were counted to monitor quantitative changes in cell number over time. Media and compounds were replaced approximately every 3-4 days.
DMSO treatment was also included as a vehicle control.

[5] = molecular target: T1, PPARG ligand-binding domain - SMRT/NCOR2 corepressor peptide (Homo sapiens, UniProt P37231); test: TR-FRET corepressor assay, SMRT/NCOR2 peptide; assay type: biochemical
T1 construct: purchased ThermoFisher Scientific
T1 sequence (P37231 238-503 limits assumed): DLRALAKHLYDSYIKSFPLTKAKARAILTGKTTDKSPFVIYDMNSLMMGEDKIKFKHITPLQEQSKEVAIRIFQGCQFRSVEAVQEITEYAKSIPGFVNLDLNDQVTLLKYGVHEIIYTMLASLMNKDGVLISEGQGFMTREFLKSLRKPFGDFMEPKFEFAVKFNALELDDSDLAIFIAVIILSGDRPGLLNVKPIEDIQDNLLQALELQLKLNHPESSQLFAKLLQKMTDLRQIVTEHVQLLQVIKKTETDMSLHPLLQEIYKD
Method: (§2) To evaluate inverse-agonism, a TR-FRET PPARG co-repressor assay (ThermoFisher) that measures recruitment of a fluorescent NCOR1 or NCOR2 corepressor peptide to the PPARG ligand-binding domain was used (ThermoFisher).
To determine effects on interactions between PPARG and coregulators, PPARG modulators were tested in two TR-FRET biochemical interaction assays for agonism and inverse-agonism. Agonism was quantitated using a coactivator assay, which measured the interaction between the PPARG ligand-binding domain and a fluorescently-labeled peptide from TRAP220/MED1. […] To evaluate inverse-agonism biochemically, ligand-dependent interactions were measured between PPARG ligand-binding domain and corepressor peptides from NCoR/NCOR1 and SMRT/NCOR2.

[6] = molecular target: T2, PPARG ligand-binding domain - NCoR/NCOR1 corepressor peptide (Homo sapiens, UniProt P37231); test: TR-FRET corepressor assay, NCoR/NCOR1 peptide; assay type: biochemical; details: data not shown
T2 construct: purchased ThermoFisher Scientific
T2 sequence (P37231 238-503 limits assumed): T1 sequence (P37231 238-503 limits assumed)
Method: as §2
In addition to the PPARG-NCOR2 interaction assay described above, interactions between PPARG and a peptide from the corepressor NCOR1 were measured.

[7] = molecular target: T3, PPARG ligand-binding domain - TRAP220/MED1 coactivator peptide (Homo sapiens, UniProt P37231); test: TR-FRET coactivator assay, TRAP220/MED1 peptide; assay type: biochemical
T3 construct: purchased ThermoFisher Scientific
T3 sequence (P37231 238-503 limits assumed): T1 sequence (P37231 238-503 limits assumed)

bladder cancer = details: rodents; cited from earlier work
[8] = molecular target: Terbium-labeled PPARG ligand binding domain (PPARG-LBD) (Macaca mulatta (Rhesus macaque)) (UniProt O18924); test: TR-FRET corepressor assay, PPARG-LBD and SMRT/NCOR2 peptide; with antagonists GW9662 and SR2595
[9] = molecular target: Terbium-labeled PPARG ligand binding domain (PPARG-LBD) (Macaca mulatta (Rhesus macaque)) (UniProt O18924); test: TR-FRET corepressor assay, PPARG-LBD and SMRT/NCOR2 peptide; with inverse-agonists T0070907 and SR10221
[10] = molecular target: Terbium-labeled PPARG ligand binding domain (PPARG-LBD) (Macaca mulatta (Rhesus macaque)) (UniProt O18924); test: TR-FRET corepressor assay, PPARG-LBD and SMRT/NCOR2 peptide; with agonists rosiglitazone, tesaglitazar and GW9129 (so in the source)
[11] = molecular target: Terbium-labeled PPARG ligand binding domain (PPARG-LBD) (Macaca mulatta (Rhesus macaque)) (UniProt O18924); test: TR-FRET PPARG-NCOR1 interaction assay; with GW9662 (data not shown)
[12] = molecular target: Terbium-labeled PPARG ligand binding domain (PPARG-LBD) (Macaca mulatta (Rhesus macaque)) (UniProt O18924); test: TR-FRET PPARG-NCOR1 interaction assay; with SR10221 (data not shown)
[13] = molecular target: Terbium-labeled PPARG ligand binding domain (PPARG-LBD) (Macaca mulatta (Rhesus macaque)) (UniProt O18924); test: TR-FRET PPARG-NCOR1 interaction assay; with T0070907 (data not shown)

Molecule: CC1=C2C=C(C(=O)N[C@@H](C)c3ccc(C(C)(C)C)cc3)C=CC2N(Cc2ccc(Cl)c(O[C@@H](C)C(=O)O)c2)C1C (stereo partly shown) [SR10221]
IC50 (5637 cells): 20 to 30 nM | effect on cell proliferation compared with DMSO control (UM-UC-9 cells [1]): significantly reduced proliferation | IC50 (UM-UC-9 cells [1]; Homo sapiens, UM-UC-9, read-out: calculated IC50, proliferation): 16 nM | reduction of proliferation relative to control (UM-UC-9 cells [2]): 80% | sensitivity of cell lines [3]: preferentially sensitive | sensitivity of cell lines [4]: preferentially sensitive | effect on PPARG-NCOR2 interaction [5]: induce interaction between PPARG and NCOR2 | induced signal [6]: less than 2 fold

Molecule: CCCCCOc1cc2c(cc1-c1cc(/C=C/C(=O)O)ccc1O)C(C)(C)CCC2(C)C [UVI3003]
effect in coactivator assay [7]: minimal effect

Molecule: CCc1ccc(CCOc2ccc(CC3SC(=O)NC3=O)cc2)nc1 (stereo not shown) [pioglitazone]
carcinogenic effect, bladder cancer (bladder cancer): carcinogenic effect in rodents was also observed

Second part, the molecule after the results:

fold increase in signal [8]: 1.7 fold | fold increase in signal [9]: 3 to 6 fold | decrease in signal [10]: 50 to 60%
Molecule: HASTNMGLEAIIRKALMGKYDQW (also: fluorescein-labeled, site not given here) [fluorescein-labeled SMRT ID2 corepressor peptide (SMRT/NCOR2)]

fold induction of signal [11]: 2.5 fold | fold induction of signal [12]: < 2 fold | fold induction of signal [13]: 6 to 8 fold
Molecule: DPASNLGLEDIIRKALMGSFDDK (also: fluorescently labeled, site not given here) [fluorescently labeled NCoR1 ID2 corepressor peptide (NCoR/NCOR1)]
